Patent US20090180969A1, “PHARMACEUTICAL FORMULATION COMPRISING AN ANTICHOLINERGIC DRUG” (Chiesi Farmaceutici S.p.A., priority 2008, published 2009)

What was measured:
[1] = tested on: acetylcholine (Ach)-induced increase in Penh (airway reactivity); assay: Bronchodilation activity: Ach-induced increase in Penh, barometric plethysmography; assay type: in vivo, guinea pig; conditions: for bronchoprotective effect: 24 hours
Description: Airway reactivity is measured using barometric plethysmography (Buxco, USA). Male guinea pigs (500-600 g) are individually placed in plexiglass chambers. After an acclimatisation period, animals are exposed to nebulised saline for 1 minute to obtain airway baseline reading. This is followed by a 1 minute challenge with nebulised acetylcholine (Ach)-2.5 mg/mL. After 60 minutes, 5 minute nebulisation of vehicle or the compound 1′ in the range 2.5-250 μM are applied and Ach challenge is then repeated after 2, 5, 24, 48 and 72 hours (h). Recording of pressure fluctuations in the chambers are taken for 5 minutes after each nebulisation and analysed to calculate Enhanced Pause (Penh). Airway reactivity is expressed as percentage increase in Penh compared with Penh values from the nebulisation of vehicle. […] After inhalation of […] of compound 1′, effect persists unchanged up to 48 hours (83.0±16.1%), while at 72 hours a residual activity of 34.8±20.9% is present.

[2] = Estimation of lung levels after nebulisation; assay type: in vivo; conditions: guinea pig, inhaled, nebulisation with submaximal bronchodilator activity, 2 hours after treatment, read-out: retained dose in the target organ (lung)

O=C(C[N+]12CCC(CC1)[C@@H](OC(=O)N(Cc1cc(F)c(F)c(F)c1)c1cccc(F)c1)C2)c1cccs1.[Cl-] [compound 1′, (3R)-3-[[[(3-fluorophenyl)[(3,4,5-trifluorophenyl)methyl]amino]carbonyl]oxy]-1-[2-oxo-2-(2-thienyl)ethyl]-1-azoniabicyclo[2.2.2]octane chloride]
bronchoprotective effect ([1]; 25 μM inhalation): 63.7±15.1% | bronchoprotective effect ([1]; 50 μM inhalation): 87.1±8.7% | inhibition ([1]; 50 μM inhalation, 48 h): 49.2±23.2% | maximal effect, inhibition of Ach-induced increase in Penh ([1]; 50 μM nebulised, 2 hours after end of nebulisation): 99.6±0.4 | effect (inhibition of Ach-induced increase in Penh) ([1]; 250 μM inhalation, 48 hours): 83.0±16.1% | residual activity ([1]; 250 μM inhalation, 72 hours): 34.8±20.9% | duration of effect ([1]; inhalation of lower concentrations (below 25 μM)): ≤ 5 h | concentration at 2 h [2]: ~50 ng/g
